According to patent US6534313B1, “Genetically modified plants having modulated brassinosteroid signaling” (The Salk Institute for Biological Studies, priority 1999, dated 2003):

Columns and labels:
[1] = system: bas1-DphyB-4 and phyB-4 seedlings; assay: Feeding experiment: metabolism of deuterium-labeled and non-labeled brassinolide in aseptically grown seedlings, GC-MS; assay type: in vivo; conditions: Arabidopsis seedlings, one day, GC-MS comparison with authentic sample
From the text: To test the hypothesis that overexpression of bas1 gene product results in hydroxylation of brassinolide, metabolism of deuterium-labeled and non-labeled brassinolide was examined using aseptically grown seedlings. As possible hydroxylated metabolites of brassinolide, 14-hydroxybrassinolide, 20-hydroxybrassinolide, 25-hydroxybrassinolide, 26-hydroxybrassinolide, and 28-hydroxybrassinolide were chemically synthesized. The possible hydroxylated brassinolide fractions from the feeding experiments were analyzed by gas chromatograph-mass spectrometry (GC-MS) after conversion to methaneboronate-trimethylsilyl derivatives.
In preliminary experiments, bas1-DphyB-4 and phyB-4 seedlings were fed ^2H6-labeled brassinolide (d6-BL) and incubated for one day. […] When BL was fed to the seedlings, 26-OHBL was detected as a metabolite of BL. […] When d6-BL was fed to the seedlings, fragment ions such as m/z 625, 583 and 570 were detected. […]
For brassinosteroid measurements, plants were grown on soil (Neff and Chory, supra) in short day conditions (8 hours of light, […] of dark) for five weeks before rosettes were harvested in liquid nitrogen. […] Brassinosteroids were analyzed according to the methods described by (S. Fujioka et al., Plant Cell 9:1951-1962, 1997). […]
Each fraction was subjected to GC-MS analysis after derivatization. 26-OHBL was detected from retention time of 2-3 min. […]

Arabidopsis seedlings = assay: Brassinolide dose response of seedling hypocotyls and cotyledon petioles; assay type: in vivo
From the text: FIGS. 3A-C are graphs showing the dose response of hypocotyls of seedlings to brassinosteroid as measured after 6 days on varying levels of brassinolide. […] Col-O=closed circles; phyB-4=open diamonds; bas1-DphyB-4=open circles; BAS1′ antisense line=closed diamonds; and det2-1=open triangles. Error bars represent one standard error from the mean. When no error bars are visible, they are smaller than the symbols.
By contrast, a brassinosteroid biosynthesis mutant det2-1 produced petioles that were shorter than the wild type in the light, while the petioles of phyB-4 mutants were longer than the wild type in the light. In both cases, these phenotypes were rescued by exposure to increasing amounts of brassinosteroids.
(CIDtech Research Inc., Mississauga, Ontario, Canada) 2 mM Brassinolide stock was made by dissolving in 95% (v/v) EtOH and stored at −20° C. The 1 μM solution was made by a 1:2000 fold dilution of the 2 mM stock in standard growth media. All other concentrations including the negative control contained the same amount of EtOH. Light conditions for fluence responses in red and blue light and seedling measurements were performed as described in Neff and Chory, supra. An E30LED growth chamber (Percival Scientific, Boone, IA) supplied far-red light. Far-red fluences were measured with a portable spectroradiometer (model LI-1800, Li-Cor, Inc., Lincoln, Nebr.).

Row | Molecule | metabolite detected after feeding to seedlings [1] | hypocotyl hyper-responsivity to brassinolide (Arabidopsis seedlings; BAS1 antisense lines, grown in the dark, 6 days) | hypocotyl response to brassinolide (Arabidopsis seedlings; BAS1 antisense lines, grown in the light, 6 days) | rosette response to brassinolide (Arabidopsis seedlings; plants overexpressing bas1 (bas1-DphyB-4), white light)
1 | 2H6-labeled brassinolide [d6-BL] | d6-26-OHBL | – | – | –
2 | CC(C)[C@H](C)[C@@H](O)[C@H](O)[C@@H](C)[C@H]1CC[C@H]2[C@@H]3COC(=O)[C@H]4C[C@H](O)[C@H](O)C[C@]4(C)[C@H]3CC[C@]12C [BL, brassinolide] | 26-OHBL | not | hyper-responsivity | insensitive
